{
  "source": "patent US20230000945A1",
  "about": "“TOPICAL PHARMACEUTICAL FORMULATIONS OF A CYCLIC DEPSIPEPTIDE” (Lifemax Laboratories, Inc., priority 2020, published 2023)",
  "key": {"[1]": {"test": "General solubility and stability properties of LM030", "format": "physicochemical", "from_the_text": "Difficulties in formulating LM030 for topical administration are described in U.S. Pat. No. 8,680,054. In particular, the solubility and stability properties of LM030 create challenges in developing a topical formulation with adequate storage stability that is also able to provide an effective amount of active agent available for skin penetration [See col 4, lines 16-23]."}, "[2]": {"test": "Stability of LM030 formulations stored at 50° C. for 7 days", "format": "physicochemical", "settings": "summary of Table 7"}},
  "data": [
    {"smiles": "CC[C@H](C)[C@@H]1NC(=O)[C@H](Cc2ccc(O)cc2)N(C)C(=O)[C@H]([C@@H](C)CC)N2C(=O)[C@H](CC[C@H]2O)NC(=O)[C@H](CC(C)C)NC(=O)[C@@H](NC(=O)[C@H](CCC(N)=O)NC(=O)C(C)C)[C@@H](C)OC1=O", "note": "[LM030]", "values": [
      {"measurement": "solubility in lipophilic excipients", "setting": "[1]", "result": "low"},
      {"measurement": "solubility in polar organic solvents", "setting": "[1]", "result": "good"},
      {"measurement": "solubility in water and aqueous buffers", "setting": "[1]", "result": "moderate"},
      {"measurement": "stability in polar organic solvents", "setting": "[1]", "result": "poor"},
      {"measurement": "stability in the presence of aqueous solutions", "setting": "[2]", "result": "poor stability"}
    ]}
  ]
}
